Laboratory results published in paper PMC12682947, “Identification of New KCNT1‐Epilepsy Drugs by In Silico, Cell, and Drosophila Modeling” (Annals of Neurology, 2025).
Counter-ions that a name gives are not always drawn.

Target: T1, R928C mutant KCNT1 channels (Homo sapiens, UniProt Q5JUK3, R909C)
T1 construct: YFP-6His; expressed in transfected cells; host or cells: HEK293T
T1 sequence (Q5JUK3 1-1235 isoform Q5JUK3-3 R928C): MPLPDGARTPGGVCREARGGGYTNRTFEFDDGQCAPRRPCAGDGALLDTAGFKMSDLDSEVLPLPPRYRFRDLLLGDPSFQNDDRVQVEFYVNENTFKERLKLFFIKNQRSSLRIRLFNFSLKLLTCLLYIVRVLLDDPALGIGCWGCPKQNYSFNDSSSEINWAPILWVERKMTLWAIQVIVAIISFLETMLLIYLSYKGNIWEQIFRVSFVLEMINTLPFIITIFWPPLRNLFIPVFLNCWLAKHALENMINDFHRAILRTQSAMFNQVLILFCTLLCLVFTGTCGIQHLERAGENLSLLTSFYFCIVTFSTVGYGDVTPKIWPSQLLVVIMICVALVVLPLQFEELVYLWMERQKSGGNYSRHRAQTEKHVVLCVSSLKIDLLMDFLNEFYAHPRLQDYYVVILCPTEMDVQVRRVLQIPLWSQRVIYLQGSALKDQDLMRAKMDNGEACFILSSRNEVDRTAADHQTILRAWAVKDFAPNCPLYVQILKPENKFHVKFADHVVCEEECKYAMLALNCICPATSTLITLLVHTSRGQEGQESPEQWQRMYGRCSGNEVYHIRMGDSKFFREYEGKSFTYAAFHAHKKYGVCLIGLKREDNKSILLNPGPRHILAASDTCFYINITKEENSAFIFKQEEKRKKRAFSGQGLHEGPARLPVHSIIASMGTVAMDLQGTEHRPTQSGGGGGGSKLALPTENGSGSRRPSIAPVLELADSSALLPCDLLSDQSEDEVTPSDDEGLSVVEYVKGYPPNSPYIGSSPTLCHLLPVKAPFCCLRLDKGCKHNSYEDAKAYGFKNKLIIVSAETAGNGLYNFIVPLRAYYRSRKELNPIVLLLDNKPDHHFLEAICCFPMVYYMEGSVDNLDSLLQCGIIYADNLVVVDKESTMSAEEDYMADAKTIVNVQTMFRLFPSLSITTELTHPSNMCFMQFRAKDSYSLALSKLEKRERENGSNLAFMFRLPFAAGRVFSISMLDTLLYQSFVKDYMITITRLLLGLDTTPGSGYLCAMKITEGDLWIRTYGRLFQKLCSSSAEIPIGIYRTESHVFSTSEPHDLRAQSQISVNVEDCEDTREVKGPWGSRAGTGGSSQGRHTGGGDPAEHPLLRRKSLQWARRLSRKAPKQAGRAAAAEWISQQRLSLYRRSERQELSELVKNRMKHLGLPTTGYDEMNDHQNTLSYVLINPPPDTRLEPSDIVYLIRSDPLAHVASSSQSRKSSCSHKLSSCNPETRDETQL
Assay: Inside-out patch clamp of HEK293T cells expressing R928C KCNT1
Type: cell-based
Conditions: inside-out patches, mean ± SEM
Method: The CHO cells were cultured in Dulbecco's modified Eagle's Medium (ThermoFisher, UK) supplemented with 10% (v/v) fetal bovine serum, 50 U/ml penicillin and 0.05 mg/ml streptomycin, and incubated at 37°C in 5% CO2 atmosphere. For whole cell recording of WT/Y796H KCNT1, CHO cells were transiently co‐transfected with concatemeric WT/Y796H and EYFP, as described previously.[29] For electrophysiological experiments, cells were plated onto borosilicate glass cover slips and used 2 to 4 days later. Human embryonic kidney 293T cells (HEK293T) were cultured in the same manner, but with medium supplemented with 2 mM L‐glutamine, and 1% (v/v) nonessential amino acids. For excised inside‐out recording of homomeric WT or mutant YFP‐tagged KCNT1, HEK293T cells plated on glass cover slips were transfected using Attractene Transfection Reagent (Qiagen, Germany) according to the manufacturer's instructions and used 2 to 3 days later.
Inside‐out patch clamp recordings were made at room temperature (23°C) from transiently transfected HEK293T cells, as described previously.[11] The pipette solution contained, in mM, 140 NaCl, 4 KCl, 2 CaCl2, 2 MgCl2, and 10 HEPES adjusted to pH 7.4 with NaOH. […] KCNT1 currents were recorded using 2 voltage protocols, depending on the number of active channels in the patch before drug application. Macroscopic currents (number of active channels > 15) were recorded in response to 100 ms voltage ramps between −120 and 120 mV applied every 2 seconds from a holding potential of −78 mV. […] With a lower number of active channels in the patch (3–15), current traces were recorded in response to 15‐second voltage steps to −20, 0, and 20 mV from a holding potential of −78 mV. Currents recorded at each voltage and each drug concentration were averaged over the duration of the trace and normalized to the average amplitudes of the corresponding current traces in drug‐free solution. […] Single channel data were analyzed using Ana software developed by Dr Michael Pusch (Istituto di Biofisica, Genova, Italy; http://users.ge.ibf.cnr.it/pusch/programs-mik.htm). […]

| SMILES | IC50 [nM] |
| --- | --- |
| O=C(OCCN1CCN(c2cccc(C(F)(F)F)c2)CC1)c1ccccc1Nc1ccnc2cc(C(F)(F)F)ccc12 [antrafenine] | 12.3 ± 3.9 |
| CC(C)c1c(C(=O)Nc2ccccc2)c(-c2ccccc2)c(-c2ccc(F)cc2)n1CC[C@@H](O)C[C@@H](O)CC(=O)O [atorvastatin] | 1200 ± 300 |
| Cc1c(O)cccc1C(=O)N[C@@H](CSc1ccccc1)[C@H](O)CN1C[C@H]2CCCC[C@H]2C[C@H]1C(=O)NC(C)(C)C [nelfinavir mesylate] | 8 ± 1.1 |
